Results from ChEMBL document CHEMBL2073895, “Charged amino acids in the transmembrane domains are involved in the determination of the substrate specificity of rat Mrp2” (Mol Pharmacol, 2001).

Key:
Assay type in all cases: functional, cell membranes, Membrane vesicle
[1] = molecular target: T1, ATP-binding cassette sub-family C member 2 (Rattus norvegicus, UniProt Q63120); assay: TP_TRANSPORTER: inhibition of E217betaG uptake (E217betaG: 0.055 uM) in membrane vesicles from Mrp2-expressing Sf9 cells
[2] = molecular target: T1, ATP-binding cassette sub-family C member 2; assay: TP_TRANSPORTER: inhibition of DNP-SG uptake (DNP-SG: 0.05 uM) in membrane vesicles from Mrp2-expressing Sf9 cells
[3] = substrate: C[C@]12CC[C@@H]3c4ccc(O)cc4CC[C@H]3[C@@H]1CC[C@@H]2O[C@@H]1O[C@H](C(=O)O)[C@@H](O)[C@H](O)[C@H]1O; assay: TP_TRANSPORTER: uptake in membrane vesicles from Mrp2-expressing Sf9 cells

N[C@@H](CCC(=O)N[C@H](CSc1ccc([N+](=O)[O-])cc1[N+](=O)[O-])C(=O)NCC(=O)O)C(=O)O
IC50 [1]: 19.3 µM

CCCCC/C=C\C\C=C/C=C/C=C/[C@@H](SC[C@@H](NC(=O)CC[C@H](N)C(=O)O)C(=O)NCC(=O)O)[C@@H](O)CCCC(=O)O [LEUKOTRIEN C4]
IC50 [1]: 0.65 µM

CCCCC/C=C\C\C=C/C=C/C=C/[C@@H](SC[C@H](N)C(=O)O)[C@@H](O)CCCC(=O)O [LEUKOTRIEN E4]
IC50 [1]: 9.83 µM

C[C@]12CC[C@@H]3c4ccc(O)cc4CC[C@H]3[C@@H]1CC[C@@H]2O[C@@H]1O[C@H](C(=O)O)[C@@H](O)[C@H](O)[C@H]1O [ESTRADIOL 17B GLUCURONIDE]
IC50 [2]: 13.3 µM

CCCCC/C=C\C\C=C/C=C/C=C/[C@@H](SC[C@H](N)C(=O)NCC(=O)O)[C@@H](O)CCCC(=O)O [LEUKOTRIENE D4]
IC50 [1]: 5.48 µM

CN(C)C(=O)CCSC(SCCC(=O)O)c1cccc(/C=C/c2ccc3ccc(Cl)cc3n2)c1 (stereo not drawn) [MK-571]
IC50 [1]: 2.62 µM

CCCCC/C=C\C\C=C/C=C/C=C/[C@@H](SC[C@H](NC(=O)CC[C@@H](N)C(=O)O)C(=O)O)[C@@H](O)CCCC(=O)O [LEUKOTRIEN F4]
IC50 [1]: 10 µM

B1: ATP-binding cassette sub-family C member 2 (Rattus norvegicus) (protein)
chain: MDKFCNSTFWDLSLLESPEADLPLCFEQTVLVWIPLGFLWLLAPWQLYSVYRSRTKRSSITKFYLAKQVFVVFLLILAAIDLSLALTEDTGQATVPPVRYTNPILYLCTWLLVLAVQHSRQWCVRKNSWFLSLFWILSVLCGVFQFQTLIRALLKDSKSNMAYSYLFFVSYGFQIVLLILTAFSGPSDSTQTPSVTASFLSSITFSWYDRTVLKGYKHPLTLEDVWDIDEGFKTRSVTSKFEAAMTKDLQKARQAFQRRLQKSQRKPEATLHGLNKKQSQSQDVLVLEEAKKKSEKTTKDYPKSWLIKSLFKTFHVVILKSFILKLIHDLLVFLNPQLLKLLIGFVKSSNSYVWFGYICAILMFAVTLIQSFCLQSYFQHCFVLGMCVRTTVMSSIYKKALTLSNLARKQYTIGETVNLMSVDSQKLMDATNYMQLVWSSVIQITLSIFFLWRELGPSILAGVGVMVLLIPVNGVLATKIRNIQVQNMKNKDKRLKIMNEILSGIKILKYFAWEPSFQEQVQGIRKKELKNLLRFGQLQSLLIFILQITPILVSVVTFSVYVLVDSANVLNAEKAFTSITLFNILRFPLSMLPMVTSSILQASVSVDRLERYLGGDDLDTSAIRRVSNFDKAVKFSEASFTWDPDLEATIQDVNLDIKPGQLVAVVGTVGSGKSSLVSAMLGEMENVHGHITIQGSTAYVPQQSWIQNGTIKDNILFGSEYNEKKYQQVLKACALLPDLEILPGGDMAEIGEKGINLSGGQKQRVSLARAAYQDADIYILDDPLSAVDAHVGKHIFNKVVGPNGLLAGKTRIFVTHGIHFLPQVDEIVVLGKGTILEKGSYRDLLDKKGVFARNWKTFMKHSGPEGEATVNNDSEAEDDDDGLIPTMEEIPEDAASLAMRRENSLRRTLSRSSRSSSRRGKSLKNSLKIKNVNVLKEKEKEVEGQKLIKKEFVETGKVKFSIYLKYLQAVGWWSILFIILFYGLNNVAFIGSNLWLSAWTSDSDNLNGTNNSSSHRDMRIGVFGALGLAQGICLLISTLWSIYACRNASKALHGQLLTNILRAPMRFFDTTPTGRIVNRFSGDISTVDDLLPQTLRSWMMCFFGIAGTLVMICMATPVFAIIIIPLSILYISVQVFYVATSRQLRRLDSVTKSPIYSHFSETVTGLPIIRAFEHQQRFLAWNEKQIDINQKCVFSWITSNRWLAIRLELVGNLVVFCSALLLVIYRKTLTGDVVGFVLSNALNITQTLNWLVRMTSEAETNIVAVERISEYINVENEAPWVTDKRPPADWPRHGEIQFNNYQVRYRPELDLVLKGITCNIKSGEKVGVVGRTGAGKSSLTNCLFRILESAGGQIIIDGIDVASIGLHDLRERLTIIPQDPILFSGSLRMNLDPFNKYSDEEVWRALELAHLRSFVSGLQLGLLSEVTEGGDNLSIGQRQLLCLGRAVLRKSKILVLDEATAAVDLETDSLIQTTIRKEFSQCTVITIAHRLHTIMDSDKIMVLDNGKIVEYGSPEELLSNRGSFYLMAKEAGIENVNHTEL
Km [3]: 3.91 µM
